In PMC8583417, “Evaluation of the Antimicrobial Efficacy of N-Acetyl-L-Cysteine, Rhamnolipids, and Usnic Acid—Novel Approaches to Fight Food-Borne Pathogens” (International Journal of Molecular Sciences, 2021):
Values after ≈ are worked out from the molar mass of the structure shown.

Assays:
E. coli 683/17 = assay: MIC for biofilm metabolic activity (MTT reduction assay); assay type: cell-based, Escherichia coli; details: for MICBM80: ≥80% inhibition, 24 h
Method: (§1) Ten concentrations of NAC, RLs, and UA were tested to determine the minimum inhibitory concentration for planktonic growth, and subsequently, the six highest concentrations were applied on preformed biofilms to evaluate the biofilm eradication ability of the compounds. MIC was defined as the lowest substance concentration able to inhibit at least 80% of microbial growth (MICPC80 for planktonic cells, MICBC80 for further growth of biofilm cells), inhibit 80% of metabolic activity (MICBM80 for biofilm metabolic activity, MICMPB80 for metabolic activity of preformed biofilm), prevent biofilm formation by at least 80% (MICBF80 for biofilm formation), or reduce a preformed biofilm by at least 80% (MICBR80 for biofilm reduction). The results of MICs are summarized in Table 1 (planktonic cells) and Table 2 (biofilm-associated cells).
(§2) The determination of MICs was performed according to Chlumsky et al.. Briefly, 96-well flat-bottomed microtiter plates were inoculated with 75 µL (for biofilm formation) or 100 µL (for preformed biofilm) of bacterial suspension (A625nm 0.08 to 0.1) in technical triplicates and were then carefully mixed with the dilution series of the test substances (24 h cultivation at 25 °C for S. Infantis, 37 °C for other strains) or were directly cultivated to preform biofilms (18 h). For a positive control of bacterial growth, the inoculum was mixed with a pure sterile medium. Furthermore, the sterile medium was included in the plate as a marker of potential microbial contamination. To evaluate planktonic cells growth (MICPC80) and further growth of biofilm cells (MICBC80), the optical density of the content of the microtiter plates was measured spectrophotometrically at 625 nm before and after 24 h (for biofilm formation) of cultivation or before and after additional 20 h incubation with the tested compound (for preformed biofilm). The difference of A625nm was considered as a measure of the ability of cells to grow in the presence of the tested substances. To evaluate the inhibition of biofilm formation (MICBF80) and reduction in preformed biofilms (MICBR80), biomass was quantified using crystal violet staining, and its metabolic activity (MICBM80 and MICMPB80) was estimated by using the MTT (thiazyl tetrazolium bromide, Sigma-Aldrich, USA) reduction assay, both measured spectrophotometrically at 595 nm.
(§3) All inhibitions were calculated using the formula of Chlumsky et al. below (Equation (1)):(1) A625(595)nm inhibition (%)=A625(595)nm (control) – A625(595)nm(natural substance)/A625(595)nm (control)× 100 where A625(595)nm (control) is the absorbance of bacterial suspension/biofilm itself, and A625(595)nm(natural substance) is the absorbance of the bacterial suspension/biofilm with the added natural substance (NAC, RLs, and UA).
(§4) When the minimum inhibitory concentration could not be determined, the MIC was established as >the highest tested concentration for NAC, RLs, and UA.

E. coli 693/17 = assay: as above; assay type: cell-based, Escherichia coli; details: for MICBM80: ≥80% inhibition, 24 h
Method: as §1, §2, §3, §4

S. aureus 1241 = assay: MIC for reduction of preformed biofilm (crystal violet staining); assay type: cell-based, Staphylococcus aureus; details: for maximal achieved inhibition (MICBR80 not reached), biofilm reduction: preformed biofilm, within tested concentrations; for MICBR80: ≥80% reduction of preformed biofilm (18 h), 20 h with substance
Method: as §1, §2, §3, §4

S. aureus 816 [1] = assay: as above; assay type: cell-based, Staphylococcus aureus; details: for MICBR80: ≥80% reduction of preformed biofilm (18 h), 20 h with substance
Method: as §1, §2, §3, §4

Gram-negative bacteria [2] = assay: Inhibition of planktonic growth, summary over strains; assay type: cell-based; details: at maximal tested concentration (RLs 1000 µg/mL, UA 31.3 µg/mL)
Method: as §2, with “The difference of A625nm was considered as a measure of the ability of cells to grow in the presence of the tested substances.” left out, “nm. […]” for “nm.”

Gram-negative bacteria [3] = assay: Inhibition of biofilm formation, summary over strains; assay type: cell-based; details: maximal tested concentration 31.3 µg/mL
Method: as §2, with “The difference of A625nm was considered as a measure of the ability of cells to grow in the presence of the tested substances.” left out, “nm. […]” for “nm.”

Gram-negative bacteria [4] = assay: Inhibition of biofilm metabolic activity, summary over strains; assay type: cell-based; details: maximal tested concentration 31.3 µg/mL
Method: as §2, with “The difference of A625nm was considered as a measure of the ability of cells to grow in the presence of the tested substances.” left out, “nm. […]” for “nm.”

[5] = system: preformed biofilms of Gram-negative bacteria; assay: Inhibition of further growth of biofilm cells, summary over strains; assay type: cell-based
Method: as §2, with “The difference of A625nm was considered as a measure of the ability of cells to grow in the presence of the tested substances.” left out, “nm. […]” for “nm.”

[6] = system: preformed biofilms of Gram-negative bacteria; assay: Inhibition of metabolic activity of preformed biofilm, summary over strains; assay type: cell-based
Method: as §2, with “The difference of A625nm was considered as a measure of the ability of cells to grow in the presence of the tested substances.” left out, “nm. […]” for “nm.”

Gram-negative bacteria [7] = assay: Reduction of preformed biofilm, summary over strains; assay type: cell-based
Method: as §2, with “The difference of A625nm was considered as a measure of the ability of cells to grow in the presence of the tested substances.” left out, “nm. […]” for “nm.”

Gram-positive bacteria = assay: as above; assay type: cell-based; details: Gram-positive strains other than L. monocytogenes 164
Method: as §2, with “The difference of A625nm was considered as a measure of the ability of cells to grow in the presence of the tested substances.” left out, “nm. […]” for “nm.”

S. aureus 1945^GFPuvr = system: S. aureus 1945^GFPuvr; parameters: method as in PMID 30151647; details: cited from earlier work
S. aureus 816 [8] = assay: MIC for further growth of biofilm cells, preformed biofilm (A625nm); assay type: cell-based, Staphylococcus aureus; details: ≥80% inhibition, 18 h preformed biofilm, 20 h with substance
Method: as §1
The determination of MICs was performed according to Chlumsky et al.. […] To evaluate planktonic cells growth (MICPC80) and further growth of biofilm cells (MICBC80), the optical density of the content of the microtiter plates was measured spectrophotometrically at 625 nm before and after 24 h (for biofilm formation) of cultivation or before and after additional 20 h incubation with the tested compound (for preformed biofilm). […] To evaluate the inhibition of biofilm formation (MICBF80) and reduction in preformed biofilms (MICBR80), biomass was quantified using crystal violet staining, and its metabolic activity (MICBM80 and MICMPB80) was estimated by using the MTT (thiazyl tetrazolium bromide, Sigma-Aldrich, USA) reduction assay, both measured spectrophotometrically at 595 nm.
as §3, with “UA). […]” for “UA).”

[9] = system: tested food-borne pathogens; assay: MIC for bacterial growth, summary over all tested strains; assay type: cell-based; details: this study
Method: as §2, with “The difference of A625nm was considered as a measure of the ability of cells to grow in the presence of the tested substances.” left out, “nm. […]” for “nm.”

[10] = system: Haemophilus influenza, Pseudomonas aeruginosa, and Streptococcus pneumoniae; parameters: method as in PMID 29234086, PMID 31022884, PMID 27492531; details: clinical pathogens; cited from earlier work
[11] = system: Haemophilus influenza, Pseudomonas aeruginosa, and Streptococcus pneumoniae; parameters: method as in PMID 29234086, PMID 31022884, PMID 27492531; details: clinical pathogens; cited from earlier work; remark: listed apart in the source

| Compound | maximal achieved inhibition (MICBM80 not reached) (E. coli 683/17; within tested concentrations) | MICBM80 (E. coli 683/17) | maximal achieved inhibition (MICBM80 not reached) (E. coli 693/17; within tested concentrations) | MICBM80 (E. coli 693/17) | maximal achieved inhibition (MICBR80 not reached), biofilm reduction (S. aureus 1241) | MICBR80 (S. aureus 1241) | maximal achieved inhibition (MICBR80 not reached), biofilm reduction (S. aureus 816 [1]; preformed biofilm, within tested concentrations) | MICBR80 (S. aureus 816 [1]) | maximum inhibition of planktonic growth (MICPC80), range over strains (Gram-negative bacteria [2]) | maximum inhibition (MICBF80), range over strains (Gram-negative bacteria [3]) | maximum inhibition (MICBM80), range over strains (Gram-negative bacteria [4]) | maximum observed inhibition of further growth of biofilm cells [5] | maximum observed inhibition of metabolic activity of preformed biofilm [6] | maximum observed reduction of preformed biofilm (Gram-negative bacteria [7]) | maximum observed reduction of preformed biofilm, range over strains (Gram-positive bacteria) | minimal inhibition concentration, bacterial growth (S. aureus 1945^GFPuvr) | MICBC80 (S. aureus 816 [8]) | MIC for bacterial growth, range over strains [9] | MIC against bacterial growth [10] | MIC needed for biofilm reduction [11] |
| --- | --- | --- | --- | --- | --- | --- | --- | --- | --- | --- | --- | --- | --- | --- | --- | --- | --- | --- | --- | --- |
| CC(=O)c1c(O)c(C)c(O)c2c1OC1=CC(=O)C(C(C)=O)C(=O)C12C (single isomer, unassigned; (+)) [UA, (+)-usnic acid] | 27% | > 31.3 µg/mL | 16% | > 31.3 µg/mL | 72% | > 31.3 µg/mL | 35% | > 31.3 µg/mL | 20–42% | 10–47% | 16–47% | up to 61% | up to 53% | up to 30% | 35–72% | 32 µg/mL (≈ 92.9 µM) | – | – | – | – |
| CC(=O)N[C@@H](CS)C(=O)O [NAC, N-Acetyl-L-cysteine] | – | 6250 µg/mL | – | 6250 µg/mL | 31% | > 100,000 µg/mL | – | 12,500 µg/mL | – | – | – | – | – | – | – | – | 3130 µg/mL | 3130–12,500 µg/mL | 500 to 2500 µg/mL | 2500–10,000 µg/mL |
